According to paper PMC11436701 (Scientific Reports, 2024):
pIC50: −log10 of the molar value.

Biological target: AChE (Electrophorus electricus, 220 U·mg^-1) (Electrophorus electricus, UniProt O42275)
Test: modified Ellman assay, […] nm
Assay type: biochemical

Chain of AChE (Electrophorus electricus, 220 U·mg^-1) (O42275 24-633): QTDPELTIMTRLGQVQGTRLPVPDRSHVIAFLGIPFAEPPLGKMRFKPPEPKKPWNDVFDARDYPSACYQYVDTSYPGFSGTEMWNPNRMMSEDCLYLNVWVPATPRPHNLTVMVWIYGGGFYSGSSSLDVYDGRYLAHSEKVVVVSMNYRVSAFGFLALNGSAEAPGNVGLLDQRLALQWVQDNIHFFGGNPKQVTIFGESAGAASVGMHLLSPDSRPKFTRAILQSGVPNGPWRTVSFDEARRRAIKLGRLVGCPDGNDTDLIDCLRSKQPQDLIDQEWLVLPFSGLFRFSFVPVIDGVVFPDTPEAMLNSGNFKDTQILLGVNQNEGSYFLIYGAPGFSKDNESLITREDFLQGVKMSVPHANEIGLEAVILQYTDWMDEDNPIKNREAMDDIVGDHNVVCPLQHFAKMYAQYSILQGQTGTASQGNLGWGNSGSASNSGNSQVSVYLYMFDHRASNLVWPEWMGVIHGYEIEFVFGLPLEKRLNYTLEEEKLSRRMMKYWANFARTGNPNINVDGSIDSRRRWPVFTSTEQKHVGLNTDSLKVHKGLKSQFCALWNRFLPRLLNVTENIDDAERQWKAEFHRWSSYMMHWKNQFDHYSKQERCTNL

SMILES	pIC50
CCOP(=S)(OCC)Oc1nc(Cl)c(Cl)cc1Cl [CPF, chlorpyrifos]	4.14
COP(=O)(OC)OC=C(Cl)Cl [DDVP, dichlorvos]	5.90
